The text below walks through data of publication PMC8031368 (ACS chemical biology, 2020).

As usually defined, the Ki is the equilibrium dissociation constant of an inhibitor or competing ligand from its target.

In assay [1] the target is T1, PR (Homo sapiens, UniProt P06401).
T1 sequence (P06401 1-933): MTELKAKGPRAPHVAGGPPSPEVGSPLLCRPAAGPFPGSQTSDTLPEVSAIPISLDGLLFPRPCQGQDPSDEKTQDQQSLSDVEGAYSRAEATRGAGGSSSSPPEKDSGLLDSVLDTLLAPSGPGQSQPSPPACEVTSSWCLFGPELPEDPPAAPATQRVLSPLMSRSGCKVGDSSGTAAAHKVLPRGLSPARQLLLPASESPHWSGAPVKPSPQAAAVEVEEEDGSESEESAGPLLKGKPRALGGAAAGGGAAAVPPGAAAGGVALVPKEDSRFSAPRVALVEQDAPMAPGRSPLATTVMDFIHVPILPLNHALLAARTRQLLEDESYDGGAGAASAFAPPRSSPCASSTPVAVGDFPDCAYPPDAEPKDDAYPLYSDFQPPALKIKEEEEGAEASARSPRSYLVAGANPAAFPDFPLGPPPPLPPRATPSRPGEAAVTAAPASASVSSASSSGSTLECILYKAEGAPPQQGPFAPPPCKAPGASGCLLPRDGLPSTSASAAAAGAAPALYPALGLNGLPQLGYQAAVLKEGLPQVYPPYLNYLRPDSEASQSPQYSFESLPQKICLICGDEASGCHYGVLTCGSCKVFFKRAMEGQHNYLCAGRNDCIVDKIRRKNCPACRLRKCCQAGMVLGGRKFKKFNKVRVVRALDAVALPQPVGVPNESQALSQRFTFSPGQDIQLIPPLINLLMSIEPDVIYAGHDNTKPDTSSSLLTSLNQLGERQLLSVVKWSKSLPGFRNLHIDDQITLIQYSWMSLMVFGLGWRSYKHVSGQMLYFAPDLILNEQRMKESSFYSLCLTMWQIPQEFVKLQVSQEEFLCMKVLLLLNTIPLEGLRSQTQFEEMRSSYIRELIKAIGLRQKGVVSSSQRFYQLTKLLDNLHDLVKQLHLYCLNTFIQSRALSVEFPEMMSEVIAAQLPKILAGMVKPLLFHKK
As to the kind of experiment: 3H-progesterone displacement assay on MCF7 cells. The class given is binding.

The target of assay [2] is T2, ER (Homo sapiens, UniProt P03372).
T2 sequence (P03372 1-595): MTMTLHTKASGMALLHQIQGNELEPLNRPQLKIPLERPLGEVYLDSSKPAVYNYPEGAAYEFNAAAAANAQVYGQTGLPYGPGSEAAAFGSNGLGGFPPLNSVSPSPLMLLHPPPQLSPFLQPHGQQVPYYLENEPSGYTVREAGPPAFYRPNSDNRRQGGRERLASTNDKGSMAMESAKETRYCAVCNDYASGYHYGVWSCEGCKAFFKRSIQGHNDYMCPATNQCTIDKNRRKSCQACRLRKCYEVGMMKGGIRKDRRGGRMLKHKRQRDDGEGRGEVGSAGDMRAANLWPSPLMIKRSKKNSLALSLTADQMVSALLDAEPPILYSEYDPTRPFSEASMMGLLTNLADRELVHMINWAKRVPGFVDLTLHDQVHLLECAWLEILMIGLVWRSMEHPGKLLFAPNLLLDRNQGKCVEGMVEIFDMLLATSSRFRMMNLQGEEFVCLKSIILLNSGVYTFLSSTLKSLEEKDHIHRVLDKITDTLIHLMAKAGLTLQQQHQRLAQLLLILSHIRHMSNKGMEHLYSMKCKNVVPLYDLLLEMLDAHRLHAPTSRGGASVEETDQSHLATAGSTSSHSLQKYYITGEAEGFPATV
Put plainly: 3H-estradiol displacement assay on MCF7 cells. Format: binding.

Assay [3] concerns the target T3, AR (Homo sapiens, UniProt P10275).
T3 sequence (P10275 1-920): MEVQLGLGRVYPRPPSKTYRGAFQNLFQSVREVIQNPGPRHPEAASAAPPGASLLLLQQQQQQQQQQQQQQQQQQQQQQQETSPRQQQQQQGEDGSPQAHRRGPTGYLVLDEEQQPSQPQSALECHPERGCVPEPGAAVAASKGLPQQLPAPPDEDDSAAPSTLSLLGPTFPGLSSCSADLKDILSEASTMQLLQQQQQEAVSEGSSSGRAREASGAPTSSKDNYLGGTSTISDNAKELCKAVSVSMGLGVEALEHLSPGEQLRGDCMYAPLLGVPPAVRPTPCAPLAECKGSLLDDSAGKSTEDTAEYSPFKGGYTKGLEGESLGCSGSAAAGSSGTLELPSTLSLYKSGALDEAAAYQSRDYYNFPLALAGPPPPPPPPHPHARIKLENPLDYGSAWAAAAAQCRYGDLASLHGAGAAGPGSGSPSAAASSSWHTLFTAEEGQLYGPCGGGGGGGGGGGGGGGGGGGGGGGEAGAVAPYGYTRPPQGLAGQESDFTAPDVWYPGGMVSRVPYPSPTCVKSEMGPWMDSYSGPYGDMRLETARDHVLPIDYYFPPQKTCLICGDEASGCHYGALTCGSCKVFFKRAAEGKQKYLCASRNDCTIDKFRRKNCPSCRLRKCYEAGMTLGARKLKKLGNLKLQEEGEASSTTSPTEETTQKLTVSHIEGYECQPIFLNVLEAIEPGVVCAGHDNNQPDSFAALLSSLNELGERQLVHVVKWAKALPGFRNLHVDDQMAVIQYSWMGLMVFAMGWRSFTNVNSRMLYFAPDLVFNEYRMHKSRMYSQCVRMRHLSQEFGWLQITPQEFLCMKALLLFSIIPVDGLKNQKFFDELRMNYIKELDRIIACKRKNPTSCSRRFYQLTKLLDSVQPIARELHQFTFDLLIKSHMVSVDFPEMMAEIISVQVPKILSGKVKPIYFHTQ
Put plainly: 3H-dihydrotestosterone displacement assay on LNCaP-AR cells. The class given is binding.

Assay [4] deals with GR target genes (GILZ, FKBP5, Per1) in DU145 cells. Put plainly: Real time PCR of GR target genes in DU145 cells. The class given is cell-based, human. (In qPCR the cycle at which signal appears reflects the starting amount.)
For assay [5], the target named is T4, GR (Homo sapiens, UniProt P04150).
T4 sequence (P04150 1-777): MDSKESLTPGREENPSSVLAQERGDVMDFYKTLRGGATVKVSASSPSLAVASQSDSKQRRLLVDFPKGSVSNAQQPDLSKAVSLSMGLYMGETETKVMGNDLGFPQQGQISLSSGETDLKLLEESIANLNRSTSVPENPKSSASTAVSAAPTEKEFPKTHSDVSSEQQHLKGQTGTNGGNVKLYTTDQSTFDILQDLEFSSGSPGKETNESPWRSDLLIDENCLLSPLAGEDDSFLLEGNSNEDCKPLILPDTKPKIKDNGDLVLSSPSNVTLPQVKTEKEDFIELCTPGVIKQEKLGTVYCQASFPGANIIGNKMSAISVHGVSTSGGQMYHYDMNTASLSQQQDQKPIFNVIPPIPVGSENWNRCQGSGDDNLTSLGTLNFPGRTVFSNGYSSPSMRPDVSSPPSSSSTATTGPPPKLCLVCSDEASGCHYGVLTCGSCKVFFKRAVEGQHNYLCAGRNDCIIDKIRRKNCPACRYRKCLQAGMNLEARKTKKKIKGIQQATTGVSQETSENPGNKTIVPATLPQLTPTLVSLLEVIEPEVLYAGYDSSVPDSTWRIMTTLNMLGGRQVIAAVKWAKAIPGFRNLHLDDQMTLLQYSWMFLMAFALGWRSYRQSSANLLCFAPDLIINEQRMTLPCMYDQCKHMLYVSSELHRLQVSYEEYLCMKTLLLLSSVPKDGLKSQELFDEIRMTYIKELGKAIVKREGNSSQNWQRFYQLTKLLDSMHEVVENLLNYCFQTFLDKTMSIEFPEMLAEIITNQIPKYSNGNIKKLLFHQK
Put plainly: 3H-dexamethasone displacement assay on DU145 cells. The class given is binding.

In the case of `COc1cccc2c1-c1ccc3c(c1C(Cc1ccc(F)cc1)O2)C(C)=CC(C)(C)N3` (centres unmarked) [YJH08, 5-(4-fluorobenzyl)-10-methoxy-2,2,4-trimethyl-2,5-dihydro-1H-chromeno[3,4-f]quinoline], the Ki was 555 nM in assay [1]; 19000 nM in assay [2]; 220 nM in assay [3]; 0.401 nM in assay [5] (Ki GR, 3H-dexamethasone displacement, DU145 cells, one site Ki fit); approximately 0.4 nM in assay [5] (Ki for GR). In addition, the “levels of GR target genes GILZ, FKBP5” value in assay [4] (DU145 cells, 10 μM, 6 h exposure, real time PCR) is on record as “elevated”. In assay [4] (DU145 cells, YJH08 10 μM, 6 h exposure), the “induction of Per1” value is on record as “induced by dexamethasone but not YJH08”. Also, the “GR functional activity (overall assessment)” value in assay [4] (from target gene induction in DU145 cells) was “mild GR agonist”.
